Experimental data: PubChem BioAssay AID1963860 (Molecular Pharmacology Branch, DTP, NCI, 2024)

System: CN0375-F725-PDC KRAS spheroid viability
Experiment: Anticancer human tumor CN0375-F725-PDC patient-derived colon carcinoma cell line growth inhibition [KRAS2]
Conditions: spheroids with HUVEC and MSC; for IC50: curve of first compound; for viability, T/C: stronger effect = lower value
Method in brief: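 Combination screen of spheroid viability in tumor-cell co-cultures with endothelial (HUVEC) and mesenchymal stem cell stroma. Each agent was tested in half-log dilutions, topping at clinical Cmax or at 10 microM without a known Cmax.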

[1] = second compound 0.1 µM, first compound 0.0316 µM
[2] = second compound 0.1 µM, first compound 0.1 µM
[3] = second compound 0.316 µM, first compound 0.0316 µM
[4] = second compound 0.316 µM, first compound 0.1 µM
[5] = second compound 1 µM, first compound 0.0316 µM
[6] = second compound 1 µM, first compound 0.1 µM
[7] = second compound 3.16 µM, first compound 0.0316 µM
[8] = second compound 3.16 µM, first compound 0.1 µM
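Also: spheroids exposed to agents for 7 days.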

## COc1cc(Nc2ncc3c(n2)-c2ccc(Cl)cc2C(c2c(F)cccc2OC)=NC3)ccc1C(=O)O + C=CC(=O)N1CCN(c2nc(=O)n(-c3c(C)ccnc3C(C)C)c3nc(-c4c(O)cccc4F)c(F)cc23)C(C)C1
Second compound 0.1 µM
  IC50: > 10 µM
Second compound 0.316 µM
  IC50: > 10 µM
Second compound 1 µM
  IC50: > 10 µM
Second compound 3.16 µM
  IC50: > 10 µM
Second compound 10 µM
  IC50: > 10 µM
[1]
  viability, T/C: 105%
[2]
  viability, T/C: 95.7%
Second compound 0.1 µM, first compound 0.316 µM
  viability, T/C: 89.3%
Second compound 0.1 µM, first compound 1 µM
  viability, T/C: 96.5%
Second compound 0.1 µM, first compound 3.16 µM
  viability, T/C: 95.5%
Second compound 0.1 µM, first compound 10 µM
  viability, T/C: 80.9%
[3]
  viability, T/C: 107%
[4]
  viability, T/C: 104%
Second compound 0.316 µM, first compound 0.316 µM
  viability, T/C: 95%
Second compound 0.316 µM, first compound 1 µM
  viability, T/C: 96.5%
Second compound 0.316 µM, first compound 3.16 µM
  viability, T/C: 97%
Second compound 0.316 µM, first compound 10 µM
  viability, T/C: 80.5%
[5]
  viability, T/C: 104%
[6]
  viability, T/C: 102%
Second compound 1 µM, first compound 0.316 µM
  viability, T/C: 97%
Second compound 1 µM, first compound 1 µM
  viability, T/C: 94.5%
Second compound 1 µM, first compound 3.16 µM
  viability, T/C: 94.6%
Second compound 1 µM, first compound 10 µM
  viability, T/C: 79.4%
[7]
  viability, T/C: 106%
[8]
  viability, T/C: 105%
Second compound 3.16 µM, first compound 0.316 µM
  viability, T/C: 97.7%
Second compound 3.16 µM, first compound 1 µM
  viability, T/C: 94.2%
Second compound 3.16 µM, first compound 3.16 µM
  viability, T/C: 93.1%
Second compound 3.16 µM, first compound 10 µM
  viability, T/C: 85.3%
Second compound 10 µM, first compound 0.0316 µM
  viability, T/C: 105%
Second compound 10 µM, first compound 0.1 µM
  viability, T/C: 102%
Second compound 10 µM, first compound 0.316 µM
  viability, T/C: 97.2%
Second compound 10 µM, first compound 1 µM
  viability, T/C: 88.6%
Second compound 10 µM, first compound 3.16 µM
  viability, T/C: 85.7%
Second compound 10 µM, first compound 10 µM
  viability, T/C: 79.5%

## Cn1ncnc1[C@H]1c2n[nH]c(=O)c3cc(F)cc(c23)N[C@@H]1c1ccc(F)cc1 + C=CC(=O)N1CCN(c2nc(OCC3CCCN3C)nc3c2CCN(c2cccc4cccc(C)c24)C3)CC1CC#N
Second compound 0.0316 µM
  IC50: > 0.1 µM
Second compound 0.1 µM
  IC50: > 0.1 µM
Second compound 0.316 µM
  IC50: > 0.1 µM
Second compound 1 µM
  IC50: > 0.1 µM
Second compound 3.16 µM
  IC50: < 0.000316 µM
Second compound 0.0316 µM, first compound 0.000316 µM
  viability, T/C: 99.6%
Second compound 0.0316 µM, first compound 0.001 µM
  viability, T/C: 105%
Second compound 0.0316 µM, first compound 0.00316 µM
  viability, T/C: 99.2%
Second compound 0.0316 µM, first compound 0.01 µM
  viability, T/C: 103%
Second compound 0.0316 µM, first compound 0.0316 µM
  viability, T/C: 97.6%
Second compound 0.0316 µM, first compound 0.1 µM
  viability, T/C: 99.6%
Second compound 0.1 µM, first compound 0.000316 µM
  viability, T/C: 106%
Second compound 0.1 µM, first compound 0.001 µM
  viability, T/C: 105%
Second compound 0.1 µM, first compound 0.00316 µM
  viability, T/C: 96.9%
Second compound 0.1 µM, first compound 0.01 µM
  viability, T/C: 94.3%
[1]
  viability, T/C: 100%
[2]
  viability, T/C: 91.8%
Second compound 0.316 µM, first compound 0.000316 µM
  viability, T/C: 95.9%
Second compound 0.316 µM, first compound 0.001 µM
  viability, T/C: 107%
Second compound 0.316 µM, first compound 0.00316 µM
  viability, T/C: 100%
Second compound 0.316 µM, first compound 0.01 µM
  viability, T/C: 95.9%
[3]
  viability, T/C: 101%
[4]
  viability, T/C: 87%
Second compound 1 µM, first compound 0.000316 µM
  viability, T/C: 97.6%
Second compound 1 µM, first compound 0.001 µM
  viability, T/C: 99%
Second compound 1 µM, first compound 0.00316 µM
  viability, T/C: 93.7%
Second compound 1 µM, first compound 0.01 µM
  viability, T/C: 87.7%
[5]
  viability, T/C: 90.9%
[6]
  viability, T/C: 86.2%
Second compound 3.16 µM, first compound 0.000316 µM
  viability, T/C: 14.6%
Second compound 3.16 µM, first compound 0.001 µM
  viability, T/C: 13.1%
Second compound 3.16 µM, first compound 0.00316 µM
  viability, T/C: 20.2%
Second compound 3.16 µM, first compound 0.01 µM
  viability, T/C: 16.1%
[7]
  viability, T/C: 14.4%
[8]
  viability, T/C: 14.3%
